{"source": "patent US10993944B2", "about": "“Methods and compositions for the treatment of hair loss” (Aneira Pharma, Inc., priority 2019, dated 2021)", "origin": "cited, not measured here", "key": {"[1]": {"test_system": "elevated intraocular pressure", "conditions": "glaucomatous monkey eyes; Gagliuso 2004"}, "[2]": {"test_system": "elevated intraocular pressure", "conditions": "human glaucoma patients non-responsive to latanoprost; Gandolfi 2003"}, "[3]": {"molecular_target": "human recombinant FP receptor (Homo sapiens, UniProt P43088)", "sequence (P43088 whole entry)": "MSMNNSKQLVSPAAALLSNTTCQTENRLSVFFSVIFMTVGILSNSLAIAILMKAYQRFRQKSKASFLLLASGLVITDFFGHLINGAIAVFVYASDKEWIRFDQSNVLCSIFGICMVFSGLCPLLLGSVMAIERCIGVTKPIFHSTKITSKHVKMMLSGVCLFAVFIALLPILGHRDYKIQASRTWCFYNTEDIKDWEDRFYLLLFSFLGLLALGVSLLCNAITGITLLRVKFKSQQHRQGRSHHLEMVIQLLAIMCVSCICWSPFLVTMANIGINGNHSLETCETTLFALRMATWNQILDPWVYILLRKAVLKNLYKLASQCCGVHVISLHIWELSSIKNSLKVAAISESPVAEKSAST"}, "[4]": {"test": "not given", "remark": "listed apart in the source"}, "hair growth [5]": {"test_system": "hair growth", "conditions": "McCarey 2004"}, "[6]": {"test_system": "dihydrotestosterone (DHT)", "conditions": "oral; including prostate gland and scalp"}, "hair growth [7]": {"test_system": "hair growth"}}, "note": "Where two headings read alike, the source gives them in different places."}
{"smiles": "CCNC(=O)CCC/C=C\\C[C@@H]1[C@@H](/C=C/[C@@H](O)CCc2ccccc2)[C@H](O)C[C@@H]1O", "note": "[Bimatoprost]", "values": [{"measurement": "effect on elevated intraocular pressure in combination with latanoprost", "setting": "[1]", "value": "additive to that of latanoprost"}, {"measurement": "response in reducing elevated intraocular pressure", "setting": "[2]", "value": "found responsive to bimatoprost"}]}
{"smiles": "O=C(O)CCC/C=C\\C[C@@H]1[C@@H](CC[C@@H](O)CCc2ccccc2)[C@H](O)C[C@@H]1O", "note": "[Latanoprost free acid, Latanoprost acid]", "values": [{"measurement": "potency compared to PGF2α", "setting": "[3]; human FP receptors", "value": "twice the potency of PGF2α"}, {"measurement": "potency as an FP receptor ligand compared to latanoprost", "setting": "[3]; human recombinant FP receptor", "value": "two-hundred times more potent than latanoprost"}]}
{"smiles": "CC(C)OC(=O)CCC/C=C\\C[C@@H]1[C@@H](CC[C@@H](O)CCc2ccccc2)[C@H](O)C[C@@H]1O", "note": "[Latanoprost, isopropyl ester of 17-phenyl-13,14-dihydro prostaglandin F2a]", "values": [{"measurement": "fat solubility compared to bimatoprost", "value": "more fat soluble than bimatoprost"}, {"measurement": "solubility in water (words)", "value": "poorly dissolved in water"}, {"measurement": "solubility in propylene glycol, methanol, ethanol and 2-propanol", "setting": "highest concentration (5%)", "value": "Sufficient amount of solubility can be obtained even at the highest concentration (5%)"}, {"measurement": "solubility in water (words)", "setting": "listed as latanoprost", "value": "poor solubility in water"}, {"measurement": "stability in acidic or basic aqueous solutions", "setting": "[4]; acidic or basic aqueous solutions", "value": "no more than 48 hours"}, {"measurement": "stability in neutral aqueous solutions", "setting": "[4]; neutral aqueous solutions, room temperature", "value": "up to one month"}]}
{"smiles": "CCCCCCCC(=O)CC[C@@H]1[C@@H](C/C=C\\CCCC(=O)OC(C)C)[C@@H](O)C[C@H]1O", "note": "[Uenoprostone isopropyl ester, Unoprostone isopropyl ester]", "values": [{"measurement": "hair growth", "setting": "hair growth [5]", "value": "cause no hair growth and in fact may inhibit hair growth"}]}
{"smiles": "CC(C)(C)NC(=O)[C@H]1CC[C@H]2[C@@H]3CC[C@H]4NC(=O)C=C[C@]4(C)[C@H]3CC[C@]12C", "note": "[finasteride, (1S,3aS,3bS,5aR,9aR,9bS,11aS)—N-tert-butyl-9a,11a-dimethyl-7-oxo-1,2,3,3a,3b,4,5,5a,6,9b,10,11-dodecahydroindeno[5,4-f]quinoline-1-carboxamide]", "values": [{"measurement": "decrease of production of dihydrotestosterone (DHT)", "setting": "[6]", "value": "about 70%"}]}
{"smiles": "Nc1cc(N2CCCCC2)nc(N)[n+]1OS(=O)(=O)[O-]", "note": "[minoxidil sulphate]", "values": [{"measurement": "potency as hair growth agent compared to minoxidil", "setting": "hair growth [7]", "value": "much more potent hair growth agent"}]}
{"smiles": "CCCCCCCC(=O)CC[C@@H]1[C@@H](C/C=C\\CCCC(=O)O)[C@@H](O)C[C@H]1O", "note": "[uenoprostone free acid]", "values": [{"measurement": "hair growth", "setting": "hair growth [5]", "value": "cause no hair growth and in fact may inhibit hair growth"}]}
